Results: the supplement of paper PMC10307832

Assays:
Test in all cases: relative viability (nuclei count vs DMSO), 5 days (fraction); higher = more cells survive
[1] = compound: C[C@@H](C(=O)N[C@@H](C1CCCCC1)C(=O)N2CCC[C@H]2C(=O)N[C@@H]3[C@@H](CC4=CC=CC=C34)OCC#CC#CCO[C@@H]5CC6=CC=CC=C6[C@@H]5NC(=O)[C@@H]7CCCN7C(=O)[C@H](C8CCCCC8)NC(=O)[C@H](C)NC)NC [AZD5582] + O=C(CCCCCCC(=O)Nc1ccccc1)NO [Vorinostat] (partner 1 µM)
In short: (§1)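 Lung cancer cell lines in 1536-well plates got either a single drug or a fixed anchor-drug dose together with five library-drug doses (not always all listed) in √10 steps, by pin tool, on the day after seeding. Nuclei were counted after 5 days, and relative viability is the treated-to-vehicle ratio of nuclei counts. Values are medians of duplicate plates.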

[2] = compound: Cn1nnc2c(C(N)=O)ncn2c1=O [Temozolomide] + Cc1nc(Nc2ncc(C(=O)Nc3c(C)cccc3Cl)s2)cc(N2CCN(CCO)CC2)n1 [Dasatinib] (partner 0.075 µM)
In short: as §1

[3] = compound: Cn1nnc2c(C(N)=O)ncn2c1=O [Temozolomide] + Nc1ncn([C@H]2C[C@H](O)[C@@H](CO)O2)c(=O)n1 [Decitabine] (partner 2 µM)
In short: as §1

[4] = compound: Cn1nnc2c(C(N)=O)ncn2c1=O [Temozolomide] + O=C(CCCCCCC(=O)Nc1ccccc1)NO [Vorinostat] (partner 1 µM)
In short: as §1

Row | Cell Line | relative viability ([1]; first compound 0.001581 µM) | relative viability ([1]; first compound 0.005 µM) | relative viability ([1]; first compound 0.05 µM) | relative viability ([2]; first compound 0.6325 µM) | relative viability ([2]; first compound 2 µM) | relative viability ([2]; first compound 6.325 µM) | relative viability ([2]; first compound 20 µM) | relative viability ([3]; first compound 0.6325 µM) | relative viability ([3]; first compound 2 µM) | relative viability ([3]; first compound 6.325 µM) | relative viability ([3]; first compound 20 µM) | relative viability ([4]; first compound 0.6325 µM) | relative viability ([4]; first compound 2 µM) | relative viability ([4]; first compound 6.325 µM) | relative viability ([4]; first compound 20 µM) | relative viability ([1]; first compound 0.01581 µM) | relative viability ([2]; first compound 0.2 µM) | relative viability ([3]; first compound 0.2 µM) | relative viability ([4]; first compound 0.2 µM)
1 | EKVX | 0.72 | 0.934 | 0.932 | 0.575 | 0.55 | 0.782 | 0.352 | 0.295 | 0.236 | 0.34 | 0.221 | 0.745 | 0.691 | 0.794 | 0.395 |  |  |  | 
2 | LOU-NH91 | 0.867 | 0.872 | 0.842 | 0.551 | 0.589 | 0.572 | 0.448 | 0.801 | 0.849 | 0.815 | 0.634 | 0.934 | 1.03 | 0.923 | 0.797 | 0.794 | 0.444 | 0.699 | 0.799
3 | NCI-H1355 | 0.568 | 0.711 | 0.596 | 0.732 | 0.828 | 0.699 | 0.818 | 0.4 | 0.362 | 0.336 | 0.34 | 0.638 | 0.638 | 0.624 | 0.583 | 0.535 | 0.713 | 0.37 | 0.6
4 | SK-LU-1 | 0.7 | 0.505 | 0.292 | 0.178 | 0.206 | 0.143 | 0.197 | 0.671 | 0.575 | 0.458 | 0.477 | 0.769 | 0.713 | 0.505 | 0.421 | 0.824 | 0.196 | 0.683 | 0.89
5 | LK-2 | 0.269 | 0.295 | 0.304 | 0.323 | 0.384 | 0.246 | 0.27 | 0.284 | 0.263 | 0.225 | 0.211 | 0.296 | 0.386 | 0.188 | 0.237 | 0.236 | 0.266 | 0.318 | 0.345
6 | NCI-H650 | 0.316 | 0.305 | 0.619 | 0.46 | 0.532 | 0.395 | 0.43 | 0.319 | 0.348 | 0.303 | 0.339 | 0.41 | 0.462 | 0.299 | 0.469 | 0.308 | 0.504 | 0.355 | 0.522
7 | NCI-H2085 | 0.82 | 1 | 0.917 | 0.293 | 0.282 | 0.262 | 0.218 | 0.599 | 0.587 | 0.589 | 0.471 | 0.816 | 0.865 | 0.76 | 0.68 | 0.73 | 0.22 | 0.63 | 0.87
8 | RERF-LC-KJ | 0.306 | 0.225 | 0.283 | 0.825 | 0.931 | 0.931 | 0.767 | 0.78 | 0.733 | 0.617 | 0.712 | 0.7 | 0.756 | 0.646 | 0.663 | 0.655 | 0.913 | 0.738 | 0.602
9 | NCI-H727 | 1.06 | 1.13 | 1.16 | 0.406 | 0.334 | 0.273 | 0.299 | 0.876 | 0.938 | 0.848 | 0.838 | 1.15 | 1.31 | 1.16 | 1.06 | 1.01 | 0.332 |  | 
10 | NCI-H1651 | 0.525 | 0.557 | 0.584 | 0.464 | 0.377 | 0.356 | 0.529 | 0.614 | 0.656 | 0.594 | 0.62 | 0.49 | 0.628 | 0.499 | 0.613 | 0.56 | 0.418 | 0.599 | 0.582
11 | LCLC-97TM1 | 0.34 | 0.62 | 0.343 | 0.807 | 0.934 | 0.813 | 0.803 | 0.245 | 0.223 | 0.216 | 0.253 | 0.763 | 0.659 | 0.514 | 0.628 | 0.159 | 0.76 | 0.232 | 0.98
12 | NCI-H1734 | 0.754 | 0.85 | 0.877 | 0.471 | 0.396 | 0.482 | 0.464 | 0.536 | 0.56 | 0.522 | 0.452 | 0.79 | 0.861 | 0.709 | 0.831 | 0.889 | 0.482 | 0.535 | 0.814
13 | NCI-H2126 | 0.817 | 0.84 | 0.704 | 0.664 | 0.678 | 0.61 | 0.641 | 0.611 | 0.596 | 0.639 | 0.589 | 0.761 | 0.817 | 0.752 | 0.624 | 0.47 | 0.634 | 0.554 | 0.632
14 | NCI-H522 | 0.764 | 0.827 | 0.957 | 0.729 | 0.932 | 0.703 | 0.935 | 0.623 | 0.747 | 0.608 | 0.59 | 1.02 | 1.02 | 0.973 | 0.92 | 0.828 | 0.877 | 0.591 | 0.762
15 | IA-LM | 0.772 | 0.907 | 1 |  |  |  |  |  |  |  |  | 1.05 | 0.895 | 0.952 | 1.03 |  |  |  | 0.842
16 | NCI-H1623 |  |  |  | 0.555 | 0.455 | 0.474 | 0.355 |  |  |  |  |  |  |  |  |  |  |  | 
17 | NCI-H2228 | 0.81 | 0.702 | 0.645 | 0.637 | 0.516 | 0.463 | 0.44 |  |  |  |  | 0.443 | 0.695 | 0.175 | 0.486 | 0.667 | 0.577 |  | 0.978
18 | NCI-H1563 |  |  |  | 0.481 | 0.453 | 0.366 | 0.447 |  |  |  |  |  |  |  |  |  | 0.454 |  | 
19 | NCI-H1792 |  |  |  | 0.747 | 0.73 | 0.778 | 0.867 | 0.599 | 0.407 | 0.549 | 0.54 |  |  |  |  |  | 0.498 | 0.434 | 
20 | NCI-H1648 | 0.415 | 0.441 | 0.476 |  |  |  |  | 0.469 | 0.459 | 0.336 | 0.37 | 0.436 | 0.624 | 0.457 | 0.375 |  |  |  | 
21 | A549 |  |  |  |  |  |  |  | 0.184 | 0.289 | 0.246 | 0.207 |  |  |  |  |  |  | 0.314 | 
